This series relates to human apolipoprotein B mRNA. Briefly: Inhibition of human apolipoprotein B mRNA levels in HepG2 cells, quantitative real-time PCR. Format: cell-based. As to conditions: for % Change in apolipoprotein B mRNA expression / % INHIB / % INHIB 50 nm / % INHIB 150 nm: HepG2 cells; for % INHIB (inhibition of human apolipoprotein B mRNA levels): HepG2 cells treated with 150 nM of compound, quantitative real-time PCR. On the procedure: The human hepatoblastoma cell line HepG2 was obtained from the American Type Culture Collection (Manassas, Va.). HepG2 cells were routinely cultured in Eagle's MEM supplemented with 10% fetal calf serum, non-essential amino acids, and 1 mM sodium pyruvate (Gibco/Life Technologies, Gaithersburg, Md.). Cells were routinely passaged by trypsinization and dilution when they reached 90% confluence. Cells were seeded into 96-well plates (Falcon-Primaria #3872) at a density of 7000 cells/well for use in RT-PCR analysis.
When cells reached 80% confluency, they were treated with oligonucleotide. For cells grown in 96-well plates, wells were washed once with 200 μL OPTI-MEM™-1 reduced-serum medium (Gibco BRL) and then treated with 130 μL of OPTI-MEM™-1 containing 3.75 μg/mL LIPOFECTIN™ (Gibco BRL) and the desired concentration of oligonucleotide. After 4-7 hours of treatment, the medium was replaced with fresh medium. Cells were harvested 16-24 hours after oligonucleotide treatment.
Quantitation of apolipoprotein B mRNA levels was determined by real-time quantitative PCR using the ABI PRISM™ 7700 Sequence Detection System (PE-Applied Biosystems, Foster City, Calif.) according to manufacturer's instructions. This is a closed-tube, non-gel-based, fluorescence detection system which allows high-throughput quantitation of polymerase chain reaction (PCR) products in real-time. As opposed to standard PCR, in which amplification products are quantitated after the PCR is completed, products in real-time quantitative PCR are quantitated as they accumulate. This is accomplished by including in the PCR reaction an oligonucleotide probe that anneals specifically between the forward and reverse PCR primers, and contains two fluorescent dyes. A reporter dye (e.g., JOE, FAM, or VIC, obtained from either Operon Technologies Inc., Alameda, Calif. or PE-Applied Biosystems, Foster City, Calif.) is attached to the 5′ end of the probe and a quencher dye (e.g., TAMRA, obtained from either Operon Technologies Inc., Alameda, Calif. or PE-Applied Biosystems, Foster City, Calif.) is attached to the 3′ end of the probe. When the probe and dyes are intact, reporter dye emission is quenched by the proximity of the 3′ quencher dye. During amplification, annealing of the probe to the target sequence creates a substrate that can be cleaved by the 5′-exonuclease activity of Taq polymerase. […] With each cycle, additional reporter dye molecules are cleaved from their respective probes, and the fluorescence intensity is monitored at regular intervals by laser optics built into the ABI PRISM™ 7700 Sequence Detection System. In each assay, a series of parallel reactions containing serial dilutions of mRNA from untreated control samples generates a standard curve that is used to quantitate the percent inhibition after antisense oligonucleotide treatment of test samples.
PCR reagents were obtained from PE-Applied Biosystems, Foster City, Calif. RT-PCR reactions were carried out by adding 25 μL PCR cocktail (1× TAQMAN™ buffer A, 5.5 mM MgCl2, 300 μM each of DATP, dCTP and dGTP, 600 μM of dUTP, 100 nM each of forward primer, reverse primer, and probe, 20 Units RNAse inhibitor, 1.25 Units AMPLITAQ GOLD™, and 12.5 Units MuLV reverse transcriptase) to 96 well plates containing 25 μL total RNA solution. The RT reaction was carried out by incubation for 30 minutes at 48° C. Following a 10 minute incubation at 95° C. to activate the AMPLITAQ GOLD™, 40 cycles of a two-step PCR protocol were carried out: 95° C. for 15 seconds (denaturation) followed by 60° C. for 1.5 minutes (annealing/extension).
Gene target quantities obtained by real time RT-PCR are normalized using either the expression level of GAPDH, a gene whose expression is constant, or by quantifying total RNA using RiboGreen™ (Molecular Probes, Inc. Eugene, Oreg.). GAPDH expression is quantified by real time RT-PCR, by being run simultaneously with the target, multiplexing, or separately. […]
A general note: In qPCR the cycle at which signal appears reflects the starting amount.

Where [1] appears, read: human apolipoprotein B mRNA, oligonucleotides targeting genomic sequence SEQ ID NO 334, averages from two experiments.
Setting [2] is: Table 17 variable gap, 50 nM, averages from three experiments.
Where [3] appears, read: Table 17 variable gap, 150 nM, averages from three experiments.
The mark [4] stands for this setting: Table 11 gene walk, 50 nM, averages from two experiments.
[5] abbreviates: Table 11 gene walk, 150 nM, averages from two experiments.
Setting [6] is: 50 nm oligonucleotide, variable deoxy gap position.
Setting [7] is: 150 nm oligonucleotide, variable deoxy gap position.

In the oligonucleotide strings, read from the 5' end, every base follows the letter of its sugar. An asterisk marks phosphorothioate; unmarked linkages are phosphodiester. Other units and linkages are bracketed, terminal groups are in braces. A string of capitals states the bases alone. e = 2'-O-(2-methoxyethyl) (MOE); [5mC] = 5-methylcytosine; d = 2'-deoxy (DNA)

For “332778 (antisense GCCTCAGTCTGCTTC; sugars from the 5' end e5 d10, linkages s4 o1 s9 (s phosphorothioate, o phosphodiester), methylation of C not given here) [compound 332778]”, the “% Change in apolipoprotein B mRNA expression” value is, setting by setting: (10 nM, 24 hour (Table 41)) −11%; (50 nM, 24 hour (Table 41)) −20%; (150 nM, 24 hour (Table 41)) −58%. As to “301073 (e[5mC]*eT*eG*eT*eT*d[5mC]*dT*d[5mC]*d[5mC]*dA*d[5mC]*d[5mC]*d[5mC]*dA*dT*eA*eT*e[5mC]*eA*eG; antisense) [compound 301073]”, the “% INHIB” value under setting [1] was 37%. As for “270989 (antisense e[5mC]*e[5mC]*eA*eG*e[5mC]*dT*dT*dG*dA*dG*d[5mC]*dT*d[5mC]*dA*dT*eA*e[5mC]*e[5mC]*eT*eG) [compound 270989]”, the “% INHIB (inhibition of human apolipoprotein B mRNA levels)” value (averages from two experiments) came to 64%.

Take “301175 (antisense eA*eG*e[5mC]*eA*eA*dA*dT*dT*dG*dG*dG*dA*dT*d[5mC]*dT*eG*eT*eG*e[5mC]*eT) [compound 301175]”: under setting [1], the “% INHIB” value is 29%. On to “308639 (GCCTCAGTCTGCTTCGCGCC; all C 5-methyl, all phosphorothioate, sugars by position not given here; further chemistry not fully specified) [compound 308639]”, for which the “% INHIB 50 nm” value under setting [2] turned out to be 86%. Under setting [3], the “% INHIB 150 nm” value turned out to be 94%. For “301068 (eA*eT*eT*eT*e[5mC]*d[5mC]*d[5mC]*dA*d[5mC]*dT*dG*dG*dG*dT*dA*e[5mC]*eT*e[5mC]*eT*e[5mC]; antisense) [compound 301068]”, the “% INHIB” value under setting [1] is recorded as 44%. For “281640 (e[5mC]*eA*eG*eT*eG*d[5mC]*dA*dT*d[5mC]*dA*dA*dT*dG*dA*d[5mC]*eA*eG*eA*eT*eG; antisense) [compound 281640]”, the “% INHIB (inhibition of human apolipoprotein B mRNA levels)” value (averages from two experiments) stood at 87%.

Take “301207 (antisense eT*eT*e[5mC]*e[5mC]*e[5mC]*dA*dT*dT*d[5mC]*d[5mC]*d[5mC]*dT*dG*dA*dA*eA*eG*e[5mC]*eA*eG) [compound 301207]”: the “% INHIB” value under setting [1] is 13%. In the case of “332775 (antisense GCCTCATTATTATTATCACC; sugars from the 5' end e5 d10 e5, all phosphorothioate, methylation of C not given here) [compound 332775]”, the “% Change in apolipoprotein B mRNA expression” value reads like this: (50 nM, 24 hour (Table 40)) −1%; (150 nM, 24 hour (Table 40)) “+10%”.

With “308609 (e[5mC]*eA*eG*e[5mC]*e[5mC]*dA*d[5mC]*dA*dT*dG*d[5mC]*dA*dG*d[5mC]*dT*eT*e[5mC]*eA*eG*eG; antisense) [compound 308609]”, under setting [4], the “% INHIB 50 nm” value was found to be 78%. For the same substance, the “% INHIB 150 nm” value under setting [5] is recorded as 96%. Consider “301072 (eA*eT*eT*eT*eT*dA*dA*dA*dT*dT*dA*d[5mC]*dA*dG*dT*eA*eG*eA*eT*eA; antisense) [compound 301072]”, for which the “% INHIB” value under setting [1] was determined as 43%. “301022 (eG*eG*e[5mC]*eG*eG*dG*dT*d[5mC]*d[5mC]*dA*dT*d[5mC]*dG*d[5mC]*d[5mC]*eA*eG*e[5mC]*eT*eG; antisense) [compound 301022]”: the “% INHIB (inhibition of human apolipoprotein B mRNA levels)” value (averages from two experiments) stood at 69%. Take “301096 (antisense eA*eT*eA*e[5mC]*eT*dT*dA*dT*dT*d[5mC]*d[5mC]*dT*dG*dG*dT*eA*eA*e[5mC]*e[5mC]*eA) [compound 301096]”: the “% INHIB” value under setting [1] was 24%. Consider “308646 (antisense AGGTTACCAGCCACATGCAG; 4-10-6 2'-MOE gapmer, phosphorothioate, chemistry not fully specified) [compound 308646]”, for which the “% INHIB 50 nm” value under setting [6] came to 50%. Besides, the “% INHIB 150 nm” value under setting [7] came out at 76%. Take “301156 (eT*e[5mC]*eT*eT*eT*d[5mC]*dA*dA*dA*d[5mC]*dT*dG*dG*d[5mC]*dT*eA*eG*eG*e[5mC]*eA; antisense) [compound 301156]”: the “% INHIB” value under setting [1] was determined as 39%. With “308595 (antisense eT*e[5mC]*eT*eG*e[5mC]*dT*dT*d[5mC]*dG*d[5mC]*dA*d[5mC]*d[5mC]*dT*dT*e[5mC]*eT*eG*e[5mC]*eT) [compound 308595]”, the “% INHIB 50 nm” value under setting [4] is 60%. In addition, under setting [5], the “% INHIB 150 nm” value came to 82%. “301162 (antisense e[5mC]*eA*eT*e[5mC]*eT*d[5mC]*dT*dG*dA*dG*d[5mC]*d[5mC]*d[5mC]*d[5mC]*dT*eT*eA*e[5mC]*e[5mC]*eA) [compound 301162]”: under setting [1], the “% INHIB” value came out at 24%.

As for “271023 (antisense e[5mC]*e[5mC]*e[5mC]*eT*eT*dG*d[5mC]*dT*d[5mC]*dT*dA*d[5mC]*d[5mC]*dA*dA*eT*eG*e[5mC]*eT*eT) [compound 271023]”, the “% INHIB (inhibition of human apolipoprotein B mRNA levels)” value (averages from two experiments) is 44%. As for “271002 (antisense eA*eA*eT*e[5mC]*eT*d[5mC]*dG*dA*dT*dG*dA*dG*dG*dT*d[5mC]*eA*eG*e[5mC]*eT*eG) [compound 271002]”, the “% INHIB (inhibition of human apolipoprotein B mRNA levels)” value (averages from two experiments) was determined as 48%. Regarding “301100 (antisense eT*eA*e[5mC]*eT*eG*dT*dG*dA*d[5mC]*d[5mC]*dT*dA*dT*dG*d[5mC]*e[5mC]*eA*eG*eG*eA) [compound 301100]”, the “% INHIB” value under setting [1] is recorded as 55%.

On to “147801 (antisense e[5mC]*eA*eG*eA*e[5mC]*d[5mC]*d[5mC]*dG*dA*d[5mC]*dT*d[5mC]*dG*dT*dG*eG*eA*eA*eG*eA) [compound 147801]”, for which the “% INHIB” value (Table 1, 150 nM, averages from two experiments) amounted to 38%. For the substance “281630 (antisense e[5mC]*eG*eT*e[5mC]*e[5mC]*dA*dG*dT*dA*dA*dG*d[5mC]*dT*d[5mC]*d[5mC]*eA*e[5mC]*eG*e[5mC]*e[5mC]) [compound 281630]”, the “% INHIB (inhibition of human apolipoprotein B mRNA levels)” value (averages from two experiments) is 82%. For the substance “281610 (antisense e[5mC]*eA*eG*e[5mC]*eT*d[5mC]*dT*dA*dA*dT*d[5mC]*dT*dG*dG*dT*eG*eT*e[5mC]*e[5mC]*e[5mC]) [compound 281610]”, the “% INHIB (inhibition of human apolipoprotein B mRNA levels)” value (averages from two experiments) is given as 69%.

As for “301016 (e[5mC]*e[5mC]*eT*e[5mC]*eA*dG*d[5mC]*dG*dG*d[5mC]*dA*dG*d[5mC]*dA*dA*e[5mC]*e[5mC]*eG*eA*eG; antisense) [compound 301016]”, for the setting “averages from two experiments”, the “% INHIB (inhibition of human apolipoprotein B mRNA levels)” value is reported as 62%.

Turning to “308637 (AGGTTACCAGCCACATGCAG; 1-10-9 MOE gapmer, phosphorothioate, chemistry not fully specified) [compound 308637]”, the “% INHIB 50 nm” value under setting [6] is reported as 79%. Further, under setting [7], the “% INHIB 150 nm” value amounted to 95%. “308654 (antisense GCCTCAGTCTGCTTCGCGCC; 8-10-2 2'-MOE gapmer, phosphorothioate, chemistry not fully specified) [compound 308654]”: the “% INHIB 50 nm” value under setting [2] is 81%. Also, the “% INHIB 150 nm” value under setting [3] is reported as 90%. “308648 (antisense GCCTCAGTCTGCTTCGCGCC; 6-10-4 2'-MOE gapmer, phosphorothioate, chemistry not fully specified) [compound 308648]”: the “% INHIB 50 nm” value under setting [2] came to 78%. The “% INHIB 150 nm” value under setting [3] is listed as 89%.

The record behind these values is patent US7803930B2, “Antisense modulation of apolipoprotein B-expression” (Isis Pharmaceuticals, Inc., priority 2002, dated 2010).
